Key:
human H3R = human H3R (Homo sapiens, UniProt Q9Y5N1); assay: Human H3R radioligand displacement assay
human H1R = human H1R (Homo sapiens, UniProt P35367); assay: Human H1R radioligand displacement assay; assay type: binding; conditions: for inhibition at 10 µM: read-out: hH1R Inhibition at 10 µM [%] ±SD (n); for inhibition at 1 µM: read-out: hH1R Inhibition at 1 µM [%] (n)
human H4R = human H4R (Homo sapiens, UniProt Q9H3N8); assay: Human H4R radioligand displacement assay; conditions: read-out: hH4R Inhibition at 10 µM [%] (n)
Chain of human H4R (Q9H3N8 whole entry): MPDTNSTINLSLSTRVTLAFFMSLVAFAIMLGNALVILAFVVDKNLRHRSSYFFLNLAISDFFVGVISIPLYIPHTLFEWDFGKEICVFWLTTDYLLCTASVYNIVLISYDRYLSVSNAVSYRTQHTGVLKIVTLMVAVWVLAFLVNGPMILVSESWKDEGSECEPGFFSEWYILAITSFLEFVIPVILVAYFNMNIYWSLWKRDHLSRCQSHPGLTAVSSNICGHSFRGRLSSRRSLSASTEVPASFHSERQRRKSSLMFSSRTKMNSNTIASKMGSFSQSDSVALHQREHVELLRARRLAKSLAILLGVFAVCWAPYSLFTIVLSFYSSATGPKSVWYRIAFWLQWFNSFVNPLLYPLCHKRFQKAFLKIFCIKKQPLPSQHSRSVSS

human AChE = human AChE (Homo sapiens, UniProt P22303); assay: Inhibition of AChE; assay type: biochemical; conditions: for inhibition at 10 µM: read-out: AChE Inhibition at 10 µM [%]
Chain of human AChE (P22303 32-614): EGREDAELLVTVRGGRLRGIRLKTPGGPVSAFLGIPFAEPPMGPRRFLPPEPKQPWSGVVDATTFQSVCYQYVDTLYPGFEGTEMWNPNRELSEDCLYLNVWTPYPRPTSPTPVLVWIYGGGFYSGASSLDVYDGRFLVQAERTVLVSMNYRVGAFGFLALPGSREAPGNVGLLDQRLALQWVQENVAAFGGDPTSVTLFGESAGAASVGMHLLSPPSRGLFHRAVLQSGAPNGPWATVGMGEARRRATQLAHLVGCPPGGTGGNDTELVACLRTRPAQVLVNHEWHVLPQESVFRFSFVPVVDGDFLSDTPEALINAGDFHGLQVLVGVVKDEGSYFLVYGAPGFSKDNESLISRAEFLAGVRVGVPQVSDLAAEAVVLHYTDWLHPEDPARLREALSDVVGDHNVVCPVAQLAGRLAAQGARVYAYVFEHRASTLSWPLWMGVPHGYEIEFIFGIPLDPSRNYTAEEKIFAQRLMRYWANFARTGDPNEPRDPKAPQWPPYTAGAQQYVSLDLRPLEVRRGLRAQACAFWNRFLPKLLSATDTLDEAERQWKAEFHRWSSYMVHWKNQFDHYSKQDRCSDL

human recombinant MAO-A = target: T1, human recombinant MAO-A (Homo sapiens, UniProt P21397); assay: Inhibition of monoamine oxidase A; assay type: biochemical; conditions: read-out: MAO-A % Inhibition at 10 µM
T1 sequence (P21397 1-527): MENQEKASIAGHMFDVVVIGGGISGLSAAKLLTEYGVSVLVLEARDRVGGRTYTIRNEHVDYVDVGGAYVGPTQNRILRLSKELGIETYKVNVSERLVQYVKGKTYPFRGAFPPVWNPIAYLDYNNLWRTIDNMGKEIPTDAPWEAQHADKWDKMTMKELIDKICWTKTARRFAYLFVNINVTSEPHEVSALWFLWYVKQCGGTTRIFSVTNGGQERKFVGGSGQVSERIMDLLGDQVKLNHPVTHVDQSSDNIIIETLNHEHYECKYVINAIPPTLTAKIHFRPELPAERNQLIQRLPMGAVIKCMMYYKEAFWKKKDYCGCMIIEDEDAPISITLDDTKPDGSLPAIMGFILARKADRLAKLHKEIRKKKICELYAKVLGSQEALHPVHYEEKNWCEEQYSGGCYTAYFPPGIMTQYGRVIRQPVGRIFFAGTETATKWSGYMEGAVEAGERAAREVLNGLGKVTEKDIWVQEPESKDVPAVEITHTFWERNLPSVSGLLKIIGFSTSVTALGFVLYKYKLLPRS

BuChE from human serum = BuChE from human serum (Homo sapiens, UniProt P06276); assay: Inhibition of BuChE; assay type: biochemical; conditions: for inhibition at 10 µM: read-out: hBuChE % Inhibition at 10 µM
Chain of BuChE from human serum (P06276 29-602): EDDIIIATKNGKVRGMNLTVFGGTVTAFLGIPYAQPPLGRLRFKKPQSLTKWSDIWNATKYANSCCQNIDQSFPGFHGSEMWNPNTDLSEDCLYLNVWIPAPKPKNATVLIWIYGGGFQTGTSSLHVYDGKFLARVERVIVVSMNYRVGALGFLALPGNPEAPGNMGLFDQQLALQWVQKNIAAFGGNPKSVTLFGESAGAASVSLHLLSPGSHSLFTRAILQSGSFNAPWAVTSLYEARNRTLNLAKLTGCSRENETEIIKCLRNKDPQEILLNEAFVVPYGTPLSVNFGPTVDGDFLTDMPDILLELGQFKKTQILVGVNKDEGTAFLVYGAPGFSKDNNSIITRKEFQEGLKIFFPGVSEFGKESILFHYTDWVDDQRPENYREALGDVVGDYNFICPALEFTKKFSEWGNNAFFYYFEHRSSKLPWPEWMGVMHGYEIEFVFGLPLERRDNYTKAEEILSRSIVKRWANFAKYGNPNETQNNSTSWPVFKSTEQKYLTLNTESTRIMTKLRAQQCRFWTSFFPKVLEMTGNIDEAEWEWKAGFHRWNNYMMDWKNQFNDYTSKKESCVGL

human recombinant MAO-B = target: T2, human recombinant MAO-B (Homo sapiens, UniProt P27338); assay: Inhibition of monoamine oxidase B; assay type: biochemical; conditions: for inhibition at 10 µM: read-out: MAO-B % Inhibition at 10 µM, 10 µM; for inhibition at 10 µM / MAO-B % Inhibition at 10 µM: mean of three experiments
T2 sequence (P27338 1-520): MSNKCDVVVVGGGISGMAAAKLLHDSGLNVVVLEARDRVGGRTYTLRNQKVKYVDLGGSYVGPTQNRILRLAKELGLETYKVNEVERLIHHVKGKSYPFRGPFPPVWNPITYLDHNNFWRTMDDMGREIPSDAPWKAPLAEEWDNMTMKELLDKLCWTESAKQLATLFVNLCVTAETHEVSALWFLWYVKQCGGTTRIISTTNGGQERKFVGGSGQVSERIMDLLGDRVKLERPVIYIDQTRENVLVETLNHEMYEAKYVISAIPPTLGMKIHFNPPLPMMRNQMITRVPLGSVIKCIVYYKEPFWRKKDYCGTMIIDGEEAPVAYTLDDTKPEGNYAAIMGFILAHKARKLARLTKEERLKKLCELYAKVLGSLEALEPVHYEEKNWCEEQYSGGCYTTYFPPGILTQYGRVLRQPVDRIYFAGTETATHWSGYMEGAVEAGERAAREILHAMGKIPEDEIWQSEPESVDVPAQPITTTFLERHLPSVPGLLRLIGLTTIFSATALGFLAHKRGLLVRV

Chain of human H1R (P35367 whole entry): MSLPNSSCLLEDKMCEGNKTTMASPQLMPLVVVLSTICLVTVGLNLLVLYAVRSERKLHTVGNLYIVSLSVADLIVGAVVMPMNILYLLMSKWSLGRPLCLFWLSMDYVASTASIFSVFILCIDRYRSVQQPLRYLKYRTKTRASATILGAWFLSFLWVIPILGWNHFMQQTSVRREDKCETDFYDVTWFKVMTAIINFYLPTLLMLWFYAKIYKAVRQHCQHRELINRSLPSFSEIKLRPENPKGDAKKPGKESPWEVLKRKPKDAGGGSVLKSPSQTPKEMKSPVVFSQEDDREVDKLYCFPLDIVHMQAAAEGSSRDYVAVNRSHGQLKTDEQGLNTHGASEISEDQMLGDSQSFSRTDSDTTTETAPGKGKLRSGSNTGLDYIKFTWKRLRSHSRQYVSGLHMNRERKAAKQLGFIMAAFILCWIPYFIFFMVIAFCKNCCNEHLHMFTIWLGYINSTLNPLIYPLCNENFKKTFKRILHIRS
Chain of human H3R (Q9Y5N1 whole entry): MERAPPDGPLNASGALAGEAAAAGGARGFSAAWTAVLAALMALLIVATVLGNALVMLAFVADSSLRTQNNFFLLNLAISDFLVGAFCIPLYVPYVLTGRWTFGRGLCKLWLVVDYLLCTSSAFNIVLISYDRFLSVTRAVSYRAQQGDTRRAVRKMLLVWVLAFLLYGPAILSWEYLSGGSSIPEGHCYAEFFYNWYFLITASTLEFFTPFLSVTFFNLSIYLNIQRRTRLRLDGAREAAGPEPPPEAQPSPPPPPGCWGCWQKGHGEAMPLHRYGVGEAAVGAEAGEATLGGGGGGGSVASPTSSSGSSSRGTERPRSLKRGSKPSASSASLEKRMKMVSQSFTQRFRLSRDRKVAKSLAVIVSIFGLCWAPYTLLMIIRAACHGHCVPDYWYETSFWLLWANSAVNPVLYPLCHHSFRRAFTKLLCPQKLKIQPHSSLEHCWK

Structure (SMILES)	Ki (human H3R) [nM]	inhibition at 10 µM (human H1R) [%]	inhibition at 10 µM (human H4R) [%]	IC50 (human AChE) [µM]	inhibition at 10 µM (human AChE) [%]	inhibition at 10 µM (human recombinant MAO-A) [%]	IC50 (BuChE from human serum) [nM]	inhibition at 10 µM (BuChE from human serum) [%]	inhibition at 10 µM (human recombinant MAO-B) [%]	IC50 (human recombinant MAO-B) [nM]	MAO-B % Inhibition at 10 µM (human recombinant MAO-B) [%]	inhibition at 1 µM (human H1R) [%]
O=C(NC1CCCC1)c1nc2ccc(OCCCCCNC3CCCC3)cc2s1 [Compound 3t, N-Cyclopentyl-6-((5-(cyclopentylamino)pentyl)oxy)benzo[d]thiazole-2-carboxamide]	> 1000	47.3 ± 8.91	41.8 ± 31.7	3.55 ± 0.54	75.5 ± 4.73	39 ± 4	1750 ± 60	84 ± 1	47 ± 5			
O=C(c1nc2ccc(OCCCN3CCCCC3)cc2s1)N1CCCCC1 [Compound 3d, Piperidin-1-yl-(6-(3-(piperidin-1-yl)propoxy)benzo[d]thiazol-2-yl)methanone]	74	65.3 ± 9.2	63.1 ± 11.2	> 10	33.6 ± 10.8	33 ± 3		31 ± 1	28 ± 5			
O=C(c1nc2ccc(OCCCCCN3CCCC3)cc2s1)N1CCCC1 [Compound 3s, Pyrrolidin-1-yl-(6-((5-(pyrrolidin-1-yl)pentyl)oxy)benzo[d]thiazol-2-yl)methanone]	36	66.2 ± 7.3	63.7 ± 13		58.6 ± 3.73	45 ± 3	2350 ± 230	69 ± 1	> 60	1600 ± 160	75 ± 3	
O=C(c1nc2ccc(OCCCCCN3CCCCC3)cc2s1)N1CCCCC1 [Compound 3o, Piperidin-1-yl(6-((5-(piperidin-1-yl)pentyl)oxy)benzo[d]thiazol-2-yl)methanone]	68	91.2 ± 8.2	38.8 ± 28	> 10	27.8 ± 5.91	37 ± 4	2380 ± 320	81 ± 1	> 60	3040 ± 460	70 ± 4	
O=C(c1nc2ccc(OCCCN3CCCCCC3)cc2s1)N1CCCCCC1 [Compound 4b, Azepan-1-yl-(6-(3-(azepan-1-yl)propoxy)benzo[d]thiazol-2-yl)methanone]	12			5.91 ± 0.67	62.8 ± 3.35	29 ± 2		51 ± 2	46 ± 5			41.9 ± 33.8
CC1CCCN(CCCOc2ccc3nc(C(=O)N4CCCC(C)C4)sc3c2)C1 (centres unmarked) [Compound 4k, (3-Methylpiperidin-1-yl)(6-(3-(3-methylpiperidin-1-yl)propoxy)benzo[d]thiazol-2-yl)methanone]	64			> 10	34.4 ± 2.15	32 ± 2		30 ± 5	48 ± 5			42.9 ± 28.3
O=C(c1nc2ccc(OCCCN3CCCC3)cc2s1)N1CCCC1 [Compound 3h, Pyrrolidin-1-yl-(6-(3-(pyrrolidin-1-yl)propoxy)benzo[d]thiazol-2-yl)methanone]	38	39.1 ± 13	54.3 ± 13	7.21 ± 2.3	56.8 ± 7.14	22 ± 4		13 ± 2	24 ± 4			
O=C(c1nc2ccc(OCCCCN3CCCC3)cc2s1)N1CCCC1 [Compound 3n, Pyrrolidin-1-yl(6-(4-(pyrrolidin-1-yl)butoxy)benzo[d]thiazol-2-yl)methanone]	59	37.5 ± 7.5	57.9 ± 13.3	1.3 ± 0.1	83 ± 3.27	31 ± 4	1320 ± 120	80 ± 1	49 ± 4			
O=C(c1nc2ccc(OCCN3CCCC3)cc2s1)N1CCCC1 [Compound 3b, Pyrrolidin-1-yl-(6-(2-(pyrrolidin-1-yl)ethoxy)benzo[d]thiazol-2-yl)methanone]	640	< 0	44.9 ± 18.1	0.44 ± 0.1	95.3 ± 0.8	58 ± 2	5310 ± 10	70 ± 1	47 ± 3			
O=C(NCCN1CCCC1)c1nc2ccc(OCCCNCCN3CCCC3)cc2s1 [Compound 4a, N-(2-(Pyrrolidin-1-yl)ethyl)-6-(3-((2-(pyrrolidin-1-yl)ethyl)amino)propoxy)benzo[d]thiazole-2-carboxamide]	53			1.24 ± 0.07	86.9 ± 1.51	29 ± 4	169 ± 19	97 ± 1	51 ± 1			28.1 ± 39.1
O=C(c1nc2ccc(OCCCCN3CCCCC3)cc2s1)N1CCCCC1 [Compound 3j, Piperidin-1-yl-(6-(4-(piperidin-1-yl)butoxy)benzo[d]thiazol-2-yl)methanone]	170	42.8 ± 7.7	53.1 ± 11.7	8.56 ± 2.83	54.8 ± 7.01	29 ± 5	3070 ± 240	70 ± 2	48 ± 5			

From paper PMC9937012 (Journal of Enzyme Inhibition and Medicinal Chemistry, 2023)
